Source: article PMC6677754, “In silico design and optimization of selective membranolytic anticancer peptides” (Scientific Reports, 2019)
Peptide text beside a SMILES is read from it.

Test system: single MCF7 cells
Experiment: Microfluidics chip single-cell experiment
Format: cell-based, human
Settings: single MCF7 cell in microfluidic chip, peptide 50 µM
Method: The AmphiArc2 peptide, the shortest peptide of the low micromolar active peptides, has a high hydrophobic moment (µH = 0.87) and a 180° arc of hydrophobic residues in an idealized helical structure (Fig. 1a). As determined by circular dichroism (CD) spectroscopy, the AmphiArc2 peptide is unstructured in pure water but adopts an alpha-helical structure in a hydrophobic environment (in 50% v/v water:2,2-trifluoroethanol, TFE) (Fig. 1b). […] To further investigate its membranolytic action, we observed the activity of AmphiArc2 on single MCF7 cells entrapped in a microfluidic chip.
The resultant sigmoidal curves were analyzed with the drc22 R package using a log-logistic model with 3 fixed parameters to obtain the HC50 values.
Microfluidics chip experiments
Single cell ACP action was observed on MCF7 cells entrapped in a microfluidic chip following the previously described methodology23. For visualization, cells were stained with calcein-AM at a 1 µM concentration. The calcein-AM penetrates into the cytosol of the cells and it is converted there by intracellular esterases to a fluorescent form that remains encapsulated in the cytosol. […]
in a microfuidic chip chamber after exposure to the AmphiArc2 peptide at a concentration of 50 µM. […] The loss of the cytosolic fluorescence corresponds to a permeabilization of the cell membrane. […]

## CC[C@H](C)[C@H](NC(=O)[C@H](CCCNC(=N)N)NC(=O)[C@H](Cc1c[nH]c2ccccc12)NC(=O)[C@@H](NC(=O)[C@H](CCCCN)NC(=O)[C@H](CCCCN)NC(=O)[C@@H](NC(=O)[C@@H](NC(=O)[C@@H](NC(=O)[C@H](CCCCN)NC(=O)[C@H](Cc1ccccc1)NC(=O)[C@H](CCCCN)NC(=O)[C@H](CCCCN)NC(=O)[C@H](Cc1ccccc1)NC(=O)[C@@H](NC(=O)[C@@H](N)CCCCN)[C@@H](C)CC)[C@@H](C)O)[C@@H](C)CC)[C@@H](C)CC)C(C)C)C(=O)N[C@@H](Cc1ccccc1)C(=O)NCC(=O)N[C@@H](CCCNC(=N)N)C(=O)N[C@@H](Cc1ccccc1)C(N)=O [AmphiArc2] (H-KIFKKFKTIIKKVWRIFGRF-NH2)
calcein-AM and anti-EpCAM stained, as early as
  morphological changes in the cell membrane and leakage of the cytosolic components, time after initial contact with the peptide: 30 seconds
calcein-AM stained
  time after which the encapsulated dye had leaked out, membrane deformations and blebbing: 95 s
